# Laboratory results from ChEMBL document CHEMBL1144262, “Identification of putative metabolites of docosahexaenoic acid as potent PPARgamma agonists and antidiabetic agents” (Bioorg Med Chem Lett, 2005).
# Experiments:
# [1] = In vivo body weight gain was observed in db/db mouse 4 weeks after oral administration (once daily) of 100 mg/kg of compound; (n=6); format: ADME, organism-based; parameters: dose 100 mg/kg, route oral; conditions: 672 h
# [2] = In vivo triglyceride level was observed in db/db mouse 4 weeks after oral administration (once daily) of 100 mg/kg of compound; (n=6); format: ADME, organism-based; parameters: dose 100 mg/kg, route oral; conditions: 672 h
# [3] = In vivo blood glucose level was observed in db/db mouse 4 weeks after oral administration (once daily) of 100 mg/kg of compound; (n=6); format: ADME, organism-based; parameters: dose 100 mg/kg, route oral; conditions: 672 h
# [4] = In vivo body weight gain was observed in ZDF rats 2 weeks after oral administration (once daily) of 30 mg/kg of compound; (n=6); conditions: rat, 336 h
# [5] = In vivo triglyceride level was observed in ZDF rats 2 weeks after oral administration (once daily) of 30 mg/kg of compound; (n=6); conditions: rat, 336 h
# [6] = In vivo blood glucose level was observed in ZDF rats 2 weeks after oral administration (once daily) of 30 mg/kg of compound; (n=6); conditions: rat, 336 h
compound,measurement,setting,value
CCc1ccc(CCOc2ccc(CC3SC(=O)NC3=O)cc2)nc1 (stereo unspecified) [PIOGLITAZONE],Activity,[1],15.5 g
same,Triglyceride level,[2],73 mg/dL
same,Glucose level,[3],432 mg/dL
same,Activity,[4],96.6 g
same,Triglyceride level,[5],109 mg/dL
same,Glucose level,[6],174 mg/dL
